According to the supplement of paper PMC9912026:

System: A375_aEGFR2
Assay: pERK immunofluorescence normalised to no-drug reference (=1); higher = more ERK phosphorylation (less pathway inhibition)
Settings: drug treatment time 24 h, EGF time 8 h
Method: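 A375 CRISPRa-EGFR (A375_aEGFR2) or HT29 cells were treated with two-drug dose combinations (vemurafenib, LY3009120, cobimetinib) for 24 h, then stimulated with EGF (100 ng/mL) or mock medium for 8 h. pERK (T202/Y204) was measured by immunofluorescence as the cytosolic population average, normalised to an untreated no-drug reference of the block (=1). Averages of 2 technical replicates. A375 in 5% FBS, HT29 in 10% FBS.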

CCCS(=O)(=O)Nc1ccc(F)c(C(=O)c2c[nH]c3ncc(-c4ccc(Cl)cc4)cc23)c1F [Vemurafenib] + O=C(c1ccc(F)c(F)c1Nc1ccc(I)cc1F)N1CC(O)([C@@H]2CCCCN2)C1 [Cobimetinib]
pERK immunofluorescence normalised
Settings	EGF 0 ng/mL	EGF 100 ng/mL
drug A concentration 0 µM, drug B concentration 31.62 pM	1.03	1.05
drug A concentration 0 µM, drug B concentration 0.0001 µM	1	1.07
drug A concentration 0 µM, drug B concentration 0.000316228 µM	1	1.02
drug A concentration 0 µM, drug B concentration 0.001 µM	0.917	1.01
drug A concentration 0 µM, drug B concentration 0.00316228 µM	0.732	0.906
drug A concentration 0 µM, drug B concentration 0.01 µM	0.399	0.695
drug A concentration 0 µM, drug B concentration 0.0316228 µM	0.188	0.526
drug A concentration 0 µM, drug B concentration 0.1 µM	0.147	0.468
drug A concentration 0 µM, drug B concentration 0.316228 µM	0.141	0.347
drug A concentration 0 µM, drug B concentration 1 µM	0.137	0.196
drug A concentration 0.000316228 µM, drug B concentration 0 µM	1.01	1.04
drug A concentration 0.000316228 µM, drug B concentration 31.62 pM	1.01	1.03
drug A concentration 0.000316228 µM, drug B concentration 0.0001 µM	1.01	1.02
drug A concentration 0.000316228 µM, drug B concentration 0.000316228 µM	0.984	1.02
drug A concentration 0.000316228 µM, drug B concentration 0.001 µM	0.915	0.936
drug A concentration 0.000316228 µM, drug B concentration 0.00316228 µM	0.687	0.804
drug A concentration 0.000316228 µM, drug B concentration 0.01 µM	0.383	0.605
drug A concentration 0.000316228 µM, drug B concentration 0.0316228 µM	0.175	0.498
drug A concentration 0.000316228 µM, drug B concentration 0.1 µM	0.152	0.425
drug A concentration 0.000316228 µM, drug B concentration 0.316228 µM	0.138	0.289
drug A concentration 0.000316228 µM, drug B concentration 1 µM	0.14	0.179
drug A concentration 0.001 µM, drug B concentration 0 µM	1.01	1.05
drug A concentration 0.001 µM, drug B concentration 31.62 pM	1.02	1.04
drug A concentration 0.001 µM, drug B concentration 0.0001 µM	1.01	1.02
drug A concentration 0.001 µM, drug B concentration 0.000316228 µM	0.958	1.05
drug A concentration 0.001 µM, drug B concentration 0.001 µM	0.857	0.99
drug A concentration 0.001 µM, drug B concentration 0.00316228 µM	0.631	0.816
drug A concentration 0.001 µM, drug B concentration 0.01 µM	0.328	0.621
drug A concentration 0.001 µM, drug B concentration 0.0316228 µM	0.172	0.518
drug A concentration 0.001 µM, drug B concentration 0.1 µM	0.142	0.443
drug A concentration 0.001 µM, drug B concentration 0.316228 µM	0.139	0.3
drug A concentration 0.001 µM, drug B concentration 1 µM	0.137	0.172
drug A concentration 0.00316228 µM, drug B concentration 0 µM	1.02	1.06
drug A concentration 0.00316228 µM, drug B concentration 31.62 pM	0.976	1.05
drug A concentration 0.00316228 µM, drug B concentration 0.0001 µM	0.987	1.06
drug A concentration 0.00316228 µM, drug B concentration 0.000316228 µM	0.943	0.991
drug A concentration 0.00316228 µM, drug B concentration 0.001 µM	0.874	0.935
drug A concentration 0.00316228 µM, drug B concentration 0.00316228 µM	0.623	0.81
drug A concentration 0.00316228 µM, drug B concentration 0.01 µM	0.306	0.625
drug A concentration 0.00316228 µM, drug B concentration 0.0316228 µM	0.164	0.525
drug A concentration 0.00316228 µM, drug B concentration 0.1 µM	0.149	0.435
drug A concentration 0.00316228 µM, drug B concentration 0.316228 µM	0.141	0.285
drug A concentration 0.00316228 µM, drug B concentration 1 µM	0.138	0.166
drug A concentration 0.01 µM, drug B concentration 0 µM	0.986	1.03
drug A concentration 0.01 µM, drug B concentration 31.62 pM	0.927	1.02
drug A concentration 0.01 µM, drug B concentration 0.0001 µM	0.905	0.991
drug A concentration 0.01 µM, drug B concentration 0.000316228 µM	0.875	1.01
drug A concentration 0.01 µM, drug B concentration 0.001 µM	0.814	0.909
drug A concentration 0.01 µM, drug B concentration 0.00316228 µM	0.534	0.765
drug A concentration 0.01 µM, drug B concentration 0.01 µM	0.292	0.613
drug A concentration 0.01 µM, drug B concentration 0.0316228 µM	0.198	0.503
drug A concentration 0.01 µM, drug B concentration 0.1 µM	0.144	0.417
drug A concentration 0.01 µM, drug B concentration 0.316228 µM	0.139	0.29
drug A concentration 0.01 µM, drug B concentration 1 µM	0.138	0.165
drug A concentration 0.0316228 µM, drug B concentration 0 µM	0.881	1
drug A concentration 0.0316228 µM, drug B concentration 31.62 pM	0.842	0.991
drug A concentration 0.0316228 µM, drug B concentration 0.0001 µM	0.795	0.944
drug A concentration 0.0316228 µM, drug B concentration 0.000316228 µM	0.753	0.892
drug A concentration 0.0316228 µM, drug B concentration 0.001 µM	0.666	0.834
drug A concentration 0.0316228 µM, drug B concentration 0.00316228 µM	0.441	0.692
drug A concentration 0.0316228 µM, drug B concentration 0.01 µM	0.228	0.567
drug A concentration 0.0316228 µM, drug B concentration 0.0316228 µM	0.161	0.495
drug A concentration 0.0316228 µM, drug B concentration 0.1 µM	0.145	0.414
drug A concentration 0.0316228 µM, drug B concentration 0.316228 µM	0.14	0.282
drug A concentration 0.0316228 µM, drug B concentration 1 µM	0.138	0.164
drug A concentration 0.1 µM, drug B concentration 0 µM	0.659	0.851
drug A concentration 0.1 µM, drug B concentration 31.62 pM	0.542	0.79
drug A concentration 0.1 µM, drug B concentration 0.0001 µM	0.539	0.787
drug A concentration 0.1 µM, drug B concentration 0.000316228 µM	0.489	0.774
drug A concentration 0.1 µM, drug B concentration 0.001 µM	0.404	0.672
drug A concentration 0.1 µM, drug B concentration 0.00316228 µM	0.285	0.615
drug A concentration 0.1 µM, drug B concentration 0.01 µM	0.186	0.553
drug A concentration 0.1 µM, drug B concentration 0.0316228 µM	0.149	0.525
drug A concentration 0.1 µM, drug B concentration 0.1 µM	0.146	0.407
drug A concentration 0.1 µM, drug B concentration 0.316228 µM	0.14	0.283
drug A concentration 0.1 µM, drug B concentration 1 µM	0.14	0.161
drug A concentration 0.316228 µM, drug B concentration 0 µM	0.362	0.697
drug A concentration 0.316228 µM, drug B concentration 31.62 pM	0.311	0.647
drug A concentration 0.316228 µM, drug B concentration 0.0001 µM	0.28	0.635
drug A concentration 0.316228 µM, drug B concentration 0.000316228 µM	0.264	0.643
drug A concentration 0.316228 µM, drug B concentration 0.001 µM	0.235	0.6
drug A concentration 0.316228 µM, drug B concentration 0.00316228 µM	0.187	0.584
drug A concentration 0.316228 µM, drug B concentration 0.01 µM	0.161	0.557
drug A concentration 0.316228 µM, drug B concentration 0.0316228 µM	0.146	0.502
drug A concentration 0.316228 µM, drug B concentration 0.1 µM	0.142	0.388
drug A concentration 0.316228 µM, drug B concentration 0.316228 µM	0.139	0.27
drug A concentration 0.316228 µM, drug B concentration 1 µM	0.139	0.157
drug A concentration 1 µM, drug B concentration 0 µM	0.211	0.639
drug A concentration 1 µM, drug B concentration 31.62 pM	0.195	0.623
drug A concentration 1 µM, drug B concentration 0.0001 µM	0.192	0.614
drug A concentration 1 µM, drug B concentration 0.000316228 µM	0.189	0.614
drug A concentration 1 µM, drug B concentration 0.001 µM	0.175	0.603
drug A concentration 1 µM, drug B concentration 0.00316228 µM	0.169	0.615
drug A concentration 1 µM, drug B concentration 0.01 µM	0.147	0.571
drug A concentration 1 µM, drug B concentration 0.0316228 µM	0.142	0.494
drug A concentration 1 µM, drug B concentration 0.1 µM	0.141	0.382
drug A concentration 1 µM, drug B concentration 0.316228 µM	0.138	0.245
drug A concentration 1 µM, drug B concentration 1 µM	0.141	0.153
drug A concentration 3.16228 µM, drug B concentration 0 µM	0.171	0.647
drug A concentration 3.16228 µM, drug B concentration 31.62 pM	0.161	0.666
drug A concentration 3.16228 µM, drug B concentration 0.0001 µM	0.172	0.648
drug A concentration 3.16228 µM, drug B concentration 0.000316228 µM	0.158	0.647
drug A concentration 3.16228 µM, drug B concentration 0.001 µM	0.152	0.635
drug A concentration 3.16228 µM, drug B concentration 0.00316228 µM	0.147	0.614
drug A concentration 3.16228 µM, drug B concentration 0.01 µM	0.146	0.532
drug A concentration 3.16228 µM, drug B concentration 0.0316228 µM	0.14	0.464
drug A concentration 3.16228 µM, drug B concentration 0.1 µM	0.139	0.305
drug A concentration 3.16228 µM, drug B concentration 0.316228 µM	0.139	0.179
drug A concentration 3.16228 µM, drug B concentration 1 µM	0.14	0.138
drug A concentration 10 µM, drug B concentration 0 µM	0.154	0.664
drug A concentration 10 µM, drug B concentration 31.62 pM	0.152	0.616
drug A concentration 10 µM, drug B concentration 0.0001 µM	0.148	0.612
drug A concentration 10 µM, drug B concentration 0.000316228 µM	0.149	0.579
drug A concentration 10 µM, drug B concentration 0.001 µM	0.147	0.584
drug A concentration 10 µM, drug B concentration 0.00316228 µM	0.149	0.546
drug A concentration 10 µM, drug B concentration 0.01 µM	0.147	0.476
drug A concentration 10 µM, drug B concentration 0.0316228 µM	0.141	0.36
drug A concentration 10 µM, drug B concentration 0.1 µM	0.14	0.209
drug A concentration 10 µM, drug B concentration 0.316228 µM	0.141	0.146
drug A concentration 10 µM, drug B concentration 1 µM	0.146	0.138
